Like-named read-outs stand apart in the source and are kept apart here.
Key:
PRMT7 (h) = biological target: T1, PRMT7 (h) (Homo sapiens, UniProt Q9NVM4); assay: Epigenetic enzyme assay, Methyltransferases (MTs); type: biochemical; conditions: read-out: % Inhibition of Control Values
T1 sequence (Q9NVM4 1-692): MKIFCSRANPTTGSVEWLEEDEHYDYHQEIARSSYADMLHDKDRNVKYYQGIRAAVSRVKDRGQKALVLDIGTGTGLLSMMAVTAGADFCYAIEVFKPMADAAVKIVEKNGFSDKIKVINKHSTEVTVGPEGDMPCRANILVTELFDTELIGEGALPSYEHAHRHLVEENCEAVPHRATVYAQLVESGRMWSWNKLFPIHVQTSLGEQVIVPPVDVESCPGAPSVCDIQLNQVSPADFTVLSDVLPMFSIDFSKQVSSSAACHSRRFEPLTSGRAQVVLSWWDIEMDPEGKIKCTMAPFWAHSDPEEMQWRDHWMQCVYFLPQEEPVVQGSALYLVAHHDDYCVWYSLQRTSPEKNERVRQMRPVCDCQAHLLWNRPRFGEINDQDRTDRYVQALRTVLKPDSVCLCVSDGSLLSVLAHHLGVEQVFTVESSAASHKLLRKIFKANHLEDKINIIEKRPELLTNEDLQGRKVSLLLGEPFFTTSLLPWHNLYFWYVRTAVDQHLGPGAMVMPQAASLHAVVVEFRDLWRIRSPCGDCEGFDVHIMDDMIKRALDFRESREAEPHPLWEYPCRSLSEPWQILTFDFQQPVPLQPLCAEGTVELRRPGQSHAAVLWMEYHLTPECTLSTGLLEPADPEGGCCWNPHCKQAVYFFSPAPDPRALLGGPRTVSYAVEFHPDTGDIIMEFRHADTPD

BRD2(1) (h) bromodomain = biological target: T2, BRD2(1) (h) bromodomain (Homo sapiens, UniProt P25440); assay: Epigenetic binding assay, Bromodomain; conditions: for % Inhibition of Control Specific Binding / inhibition at 10 µM: 10 μM; for inhibition at 10 µM: read-out: % Inhibition of Control Specific Binding
T2 construct: Bromodomain
T2 sequence (P25440 74-180 limits assumed): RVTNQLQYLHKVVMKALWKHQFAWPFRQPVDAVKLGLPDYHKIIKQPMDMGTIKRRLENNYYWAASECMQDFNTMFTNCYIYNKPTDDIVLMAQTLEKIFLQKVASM

Chemokine CXCR2 (IL-8RB) = biological target: T3, Chemokine CXCR2 (IL-8RB) (Homo sapiens, UniProt P25025); assay: Chemokine CXCR2 (IL-8RB) radio ligand binding; conditions: assay year 2015
T3 construct: expressed in transfected cells; host or cells: CHO-K1 cells
T3 sequence (P25025 1-360): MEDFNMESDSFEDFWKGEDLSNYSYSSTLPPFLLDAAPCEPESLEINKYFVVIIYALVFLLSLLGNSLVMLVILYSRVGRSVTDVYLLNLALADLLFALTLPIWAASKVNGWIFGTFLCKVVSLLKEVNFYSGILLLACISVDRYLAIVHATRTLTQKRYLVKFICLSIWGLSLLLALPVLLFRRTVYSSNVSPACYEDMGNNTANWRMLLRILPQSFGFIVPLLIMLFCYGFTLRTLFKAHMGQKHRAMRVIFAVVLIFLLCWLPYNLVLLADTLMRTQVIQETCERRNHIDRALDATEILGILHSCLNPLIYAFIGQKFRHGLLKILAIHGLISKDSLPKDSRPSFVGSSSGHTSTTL
Description: (§1) The in vitro pharmacological studies were conducted by Eurofins PanLab (Taiwan) using the parameters shown in Table 13 with respect to appropriate literature references.

HDAC9 (h) = HDAC9 (h) (Homo sapiens, UniProt Q9UKV0); assay: Epigenetic enzyme assay, Histone deacetylase (HDACs); type: biochemical; conditions: read-out: % Inhibition of Control Values
HDAC9 (h), sequence (Q9UKV0 whole entry): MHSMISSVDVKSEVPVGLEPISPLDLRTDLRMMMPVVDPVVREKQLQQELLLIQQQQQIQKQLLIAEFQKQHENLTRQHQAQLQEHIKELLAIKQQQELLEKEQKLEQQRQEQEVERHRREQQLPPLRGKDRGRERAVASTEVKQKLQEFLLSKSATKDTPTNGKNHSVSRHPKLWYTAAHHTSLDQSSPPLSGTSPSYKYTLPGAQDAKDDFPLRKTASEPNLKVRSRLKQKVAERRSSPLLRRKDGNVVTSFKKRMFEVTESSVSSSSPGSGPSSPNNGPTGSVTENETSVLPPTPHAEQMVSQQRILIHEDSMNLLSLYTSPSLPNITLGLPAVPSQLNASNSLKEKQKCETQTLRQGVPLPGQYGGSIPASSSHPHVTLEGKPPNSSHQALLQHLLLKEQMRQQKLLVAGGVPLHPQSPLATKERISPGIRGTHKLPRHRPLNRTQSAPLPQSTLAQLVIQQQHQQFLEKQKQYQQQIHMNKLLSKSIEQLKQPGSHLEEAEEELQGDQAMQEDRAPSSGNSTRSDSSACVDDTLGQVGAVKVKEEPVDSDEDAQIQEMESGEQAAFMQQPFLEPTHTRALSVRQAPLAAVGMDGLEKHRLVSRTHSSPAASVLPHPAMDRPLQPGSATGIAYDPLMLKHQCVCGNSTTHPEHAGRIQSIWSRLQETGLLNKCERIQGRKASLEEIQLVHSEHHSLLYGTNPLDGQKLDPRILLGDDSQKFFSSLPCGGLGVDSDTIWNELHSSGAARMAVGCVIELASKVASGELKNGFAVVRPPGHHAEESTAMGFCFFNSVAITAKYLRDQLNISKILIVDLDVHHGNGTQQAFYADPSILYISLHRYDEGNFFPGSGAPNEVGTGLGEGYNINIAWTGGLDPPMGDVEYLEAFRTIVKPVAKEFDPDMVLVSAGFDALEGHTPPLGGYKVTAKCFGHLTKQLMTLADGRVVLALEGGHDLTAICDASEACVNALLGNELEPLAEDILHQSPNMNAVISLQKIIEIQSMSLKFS

TAF1(1) (h) bromodomain = biological target: T4, TAF1(1) (h) bromodomain (Homo sapiens, UniProt P21675); assay: Epigenetic binding assay, Bromodomain; conditions: 10 μM; read-out: % Inhibition of Control Specific Binding
T4 construct: Bromodomain
T4 sequence (P21675 1397-1505 limits assumed): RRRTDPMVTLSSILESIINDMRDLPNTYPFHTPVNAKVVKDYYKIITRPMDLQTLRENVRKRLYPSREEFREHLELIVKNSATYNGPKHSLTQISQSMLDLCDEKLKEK

Angiotensin AT2 = biological target: T5, Angiotensin AT2 (Homo sapiens, UniProt P50052); assay: Angiotensin AT2 radio ligand binding; conditions: assay year 2015, read-out: % Control Response
T5 construct: expressed in transfected cells; host or cells: CHO-K1 cells
T5 sequence (P50052 1-363): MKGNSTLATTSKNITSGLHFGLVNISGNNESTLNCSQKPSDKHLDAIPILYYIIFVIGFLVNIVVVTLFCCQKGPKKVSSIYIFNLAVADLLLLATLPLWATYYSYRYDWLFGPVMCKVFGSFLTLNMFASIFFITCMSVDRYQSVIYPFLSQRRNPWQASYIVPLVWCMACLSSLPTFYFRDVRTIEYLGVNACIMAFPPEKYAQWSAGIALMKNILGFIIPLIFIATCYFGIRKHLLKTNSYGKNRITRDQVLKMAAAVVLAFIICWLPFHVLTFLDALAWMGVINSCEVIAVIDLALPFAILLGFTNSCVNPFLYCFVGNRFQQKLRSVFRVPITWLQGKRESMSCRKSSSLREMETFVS
Description: as §1

SETD2(h) = SETD2(h) (Homo sapiens, UniProt Q9BYW2); assay: Epigenetic enzyme assay, Methyltransferases (MTs); type: biochemical; conditions: for inhibition at 10 µM: read-out: % Inhibition of Control Values
SETD2(h), sequence (Q9BYW2 whole entry): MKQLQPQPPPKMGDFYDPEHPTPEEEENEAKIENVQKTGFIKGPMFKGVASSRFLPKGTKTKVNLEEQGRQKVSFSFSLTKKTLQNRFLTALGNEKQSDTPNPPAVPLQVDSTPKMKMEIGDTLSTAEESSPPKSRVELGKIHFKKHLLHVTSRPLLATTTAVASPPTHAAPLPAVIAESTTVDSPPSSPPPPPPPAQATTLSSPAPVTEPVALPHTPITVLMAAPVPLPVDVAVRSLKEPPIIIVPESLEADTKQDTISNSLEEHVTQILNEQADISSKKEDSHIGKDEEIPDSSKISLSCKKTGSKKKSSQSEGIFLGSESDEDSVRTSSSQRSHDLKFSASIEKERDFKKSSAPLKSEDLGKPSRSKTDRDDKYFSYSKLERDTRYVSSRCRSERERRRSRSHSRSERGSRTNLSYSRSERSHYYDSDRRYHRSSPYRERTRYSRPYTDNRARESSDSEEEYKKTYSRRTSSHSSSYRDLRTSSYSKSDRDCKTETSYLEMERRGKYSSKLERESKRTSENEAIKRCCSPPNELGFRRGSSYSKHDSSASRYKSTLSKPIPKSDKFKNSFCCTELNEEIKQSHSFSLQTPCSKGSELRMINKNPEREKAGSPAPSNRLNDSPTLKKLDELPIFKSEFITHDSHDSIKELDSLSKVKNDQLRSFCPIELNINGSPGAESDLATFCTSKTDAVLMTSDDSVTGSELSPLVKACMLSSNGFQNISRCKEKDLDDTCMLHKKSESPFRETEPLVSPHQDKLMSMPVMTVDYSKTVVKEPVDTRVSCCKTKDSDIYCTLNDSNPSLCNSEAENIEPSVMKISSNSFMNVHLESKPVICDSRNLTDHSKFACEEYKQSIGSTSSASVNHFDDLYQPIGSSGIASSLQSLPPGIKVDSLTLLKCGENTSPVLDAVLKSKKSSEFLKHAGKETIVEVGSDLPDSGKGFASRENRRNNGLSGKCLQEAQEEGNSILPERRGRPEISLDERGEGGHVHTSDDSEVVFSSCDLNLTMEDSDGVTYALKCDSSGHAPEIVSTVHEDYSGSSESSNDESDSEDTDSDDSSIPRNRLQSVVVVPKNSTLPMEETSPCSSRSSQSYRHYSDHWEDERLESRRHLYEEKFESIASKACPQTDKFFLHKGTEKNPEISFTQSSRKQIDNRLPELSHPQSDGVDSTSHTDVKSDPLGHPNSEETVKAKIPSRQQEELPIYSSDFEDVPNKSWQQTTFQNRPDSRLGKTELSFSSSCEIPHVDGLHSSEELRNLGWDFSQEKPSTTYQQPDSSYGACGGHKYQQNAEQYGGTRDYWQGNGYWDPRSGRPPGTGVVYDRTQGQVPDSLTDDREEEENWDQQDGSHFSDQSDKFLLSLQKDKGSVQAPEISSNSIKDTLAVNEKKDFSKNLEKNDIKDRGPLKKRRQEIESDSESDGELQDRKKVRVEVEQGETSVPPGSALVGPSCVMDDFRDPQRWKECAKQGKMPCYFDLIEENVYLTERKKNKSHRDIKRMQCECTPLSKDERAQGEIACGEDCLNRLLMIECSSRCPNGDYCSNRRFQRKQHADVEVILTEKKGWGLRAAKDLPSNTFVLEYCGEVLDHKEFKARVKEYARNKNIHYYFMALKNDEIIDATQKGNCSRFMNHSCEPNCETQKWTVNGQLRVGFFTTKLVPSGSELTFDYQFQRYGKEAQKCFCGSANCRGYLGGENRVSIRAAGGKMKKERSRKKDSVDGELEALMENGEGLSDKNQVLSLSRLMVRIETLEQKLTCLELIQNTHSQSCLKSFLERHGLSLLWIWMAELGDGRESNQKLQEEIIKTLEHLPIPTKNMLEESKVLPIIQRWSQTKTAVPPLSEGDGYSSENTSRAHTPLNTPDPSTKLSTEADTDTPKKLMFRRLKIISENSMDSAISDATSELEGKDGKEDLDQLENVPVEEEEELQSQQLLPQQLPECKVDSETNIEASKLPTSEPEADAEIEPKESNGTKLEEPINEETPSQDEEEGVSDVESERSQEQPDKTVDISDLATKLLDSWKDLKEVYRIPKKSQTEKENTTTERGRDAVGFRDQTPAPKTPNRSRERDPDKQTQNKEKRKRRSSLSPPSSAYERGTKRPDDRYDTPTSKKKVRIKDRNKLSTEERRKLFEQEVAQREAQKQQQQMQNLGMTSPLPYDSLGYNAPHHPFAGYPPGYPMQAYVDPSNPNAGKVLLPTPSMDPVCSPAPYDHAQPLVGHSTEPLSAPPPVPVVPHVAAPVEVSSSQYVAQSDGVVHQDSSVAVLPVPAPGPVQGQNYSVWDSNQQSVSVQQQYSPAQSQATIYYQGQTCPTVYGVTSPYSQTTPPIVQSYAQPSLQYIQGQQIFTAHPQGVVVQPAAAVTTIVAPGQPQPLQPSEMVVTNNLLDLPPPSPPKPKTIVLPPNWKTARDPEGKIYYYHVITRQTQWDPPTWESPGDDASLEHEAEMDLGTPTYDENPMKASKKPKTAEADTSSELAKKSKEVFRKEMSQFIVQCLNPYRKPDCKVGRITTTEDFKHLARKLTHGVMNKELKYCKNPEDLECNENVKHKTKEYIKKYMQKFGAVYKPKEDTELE

SMARCA4 (h) bromodomain = biological target: T6, SMARCA4 (h) bromodomain (Homo sapiens, UniProt P51532); assay: Epigenetic binding assay, Bromodomain; conditions: read-out: % Inhibition of Control Specific Binding
T6 construct: Bromodomain
T6 sequence (P51532 1453-1564 limits assumed): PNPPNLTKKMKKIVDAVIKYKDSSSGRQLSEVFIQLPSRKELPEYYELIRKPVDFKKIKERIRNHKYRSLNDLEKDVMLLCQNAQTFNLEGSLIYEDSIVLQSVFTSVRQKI

Histamine H3 = biological target: T7, Histamine H3 (Homo sapiens, UniProt Q9Y5N1); assay: Histamine H3 radio ligand binding
T7 construct: expressed in transfected cells; host or cells: Chem-1 cells
T7 sequence (Q9Y5N1 whole entry): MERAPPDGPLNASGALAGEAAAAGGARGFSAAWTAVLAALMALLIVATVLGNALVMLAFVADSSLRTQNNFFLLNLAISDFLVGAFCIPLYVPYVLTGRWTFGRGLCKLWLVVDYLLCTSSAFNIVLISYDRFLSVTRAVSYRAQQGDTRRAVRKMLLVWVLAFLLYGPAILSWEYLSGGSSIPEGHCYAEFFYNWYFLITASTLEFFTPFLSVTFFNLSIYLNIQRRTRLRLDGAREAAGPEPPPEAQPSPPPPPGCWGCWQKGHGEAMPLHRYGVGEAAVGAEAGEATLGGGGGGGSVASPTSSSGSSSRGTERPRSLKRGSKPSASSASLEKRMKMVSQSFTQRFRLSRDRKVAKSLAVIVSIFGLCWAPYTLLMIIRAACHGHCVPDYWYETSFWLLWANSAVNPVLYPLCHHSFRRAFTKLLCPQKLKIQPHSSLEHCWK
Description: as §1

CBX6 (h) chromodomain = biological target: T8, CBX6 (h) chromodomain (Homo sapiens, UniProt O95503); assay: Epigenetic binding assay, Chromodomain; conditions: read-out: % Inhibition of Control Specific Binding
T8 construct: Recognition and specificity determinants of the human cbx chromodomains; Eurofins CEREP (France), contract laboratory
T8 sequence (O95503 11-69 limits assumed): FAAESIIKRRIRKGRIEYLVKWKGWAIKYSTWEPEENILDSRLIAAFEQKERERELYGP

DNMT1 (h) = DNMT1 (h) (Homo sapiens, UniProt P26358); assay: Epigenetic enzyme assay, DNA methyltransferases (DNMTs); type: biochemical; conditions: read-out: % Inhibition of Control Values
[1] = assay year 2014, read-out: % Control Response
[2] = assay year 2015, read-out: % Control Response

| SMILES | inhibition at 10 µM (PRMT7 (h)) [%] | % Inhibition of Control Specific Binding (BRD2(1) (h) bromodomain) | inhibition at 10 µM (BRD2(1) (h) bromodomain) [%] | % control response at 10 µM (Chemokine CXCR2 (IL-8RB)) [%] | inhibition at 10 µM (HDAC9 (h)) [%] | inhibition at 10 µM (TAF1(1) (h) bromodomain) [%] | remaining activity at 10 µM (Angiotensin AT2) [%] | inhibition at 10 µM (SETD2(h)) [%] | inhibition at 10 µM (SMARCA4 (h) bromodomain) [%] | remaining activity at 10 µM (Histamine H3; [1]) [%] | remaining activity at 10 µM (Histamine H3; [2]) [%] | inhibition at 10 µM (CBX6 (h) chromodomain) [%] | inhibition at 10 µM (DNMT1 (h)) [%] | IC50 (BRD2(1) (h) bromodomain; Table 9, inhibition/concentration-response curve) [µM] | IC50 (SETD2(h); read-out: Reference IC50) [µM] |
| --- | --- | --- | --- | --- | --- | --- | --- | --- | --- | --- | --- | --- | --- | --- | --- |
| CC(C)=CCC[C@H](CO)[C@@H]1CC[C@@H](C)c2c1cc(C)c(O)c2O [Compound 1, 7,8,18-trihydroxyserrulat-14-ene] | -2 | significant inhibitory activity | 60 | 12 | -50 | 48 | 29 | -9 | 53 | -10 | 12 | -1 | 10 |  |  |
| CC(C)=CCC[C@@H]1C(O)Oc2c(C)cc(O)c3c2[C@H]1CC[C@H]3C (stereo partly drawn) [Compound 2, 5,18-epoxyserrulat-14-en-8,18-diol] | 0 | significant activity | 89 | -7 | -1 | 17 | 18 | -4 | 16 | -5 | 24 | 27 | 4 | 22 |  |
| CC(C)=CCC[C@@H]1COc2c(C)cc(O)c3c2[C@H]1CC[C@H]3C [Compound 3, 5,18-epoxy-8-hydroxyserrulat-14-ene] | -36 |  | 19 | 1 | -9 | 17 | 9 | -11 | 13 |  | 1 | 58 | -5 |  |  |
| Nc1ncnc2c1ncn2[C@@H]1O[C@H](CSCC[C@H](N)C(=O)O)[C@@H](O)[C@H]1O [SAH] |  |  |  |  |  |  |  |  |  |  |  |  |  |  | 1.2 |
